# The source made the active and inactive calls.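 How the source made its calls: active means maximal inhibition of the USP30 enzyme reaching 30% or more across the dose series; inactive means the rest.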
# Biological target: Ubiquitin carboxyl-terminal hydrolase 30 (Homo sapiens) (UniProt Q70CQ3)
# Test: ubiquitin-specific protease 30 DUB inhibitors, concentration-effect, biochemical, validation of primary actives (AID 1645865)
# Settings: purified USP30, Ub-rhodamine cleavage, fluorescence, 2 h
# Ubiquitin carboxyl-terminal hydrolase 30 (Homo sapiens), sequence (Q70CQ3 whole entry, looked up): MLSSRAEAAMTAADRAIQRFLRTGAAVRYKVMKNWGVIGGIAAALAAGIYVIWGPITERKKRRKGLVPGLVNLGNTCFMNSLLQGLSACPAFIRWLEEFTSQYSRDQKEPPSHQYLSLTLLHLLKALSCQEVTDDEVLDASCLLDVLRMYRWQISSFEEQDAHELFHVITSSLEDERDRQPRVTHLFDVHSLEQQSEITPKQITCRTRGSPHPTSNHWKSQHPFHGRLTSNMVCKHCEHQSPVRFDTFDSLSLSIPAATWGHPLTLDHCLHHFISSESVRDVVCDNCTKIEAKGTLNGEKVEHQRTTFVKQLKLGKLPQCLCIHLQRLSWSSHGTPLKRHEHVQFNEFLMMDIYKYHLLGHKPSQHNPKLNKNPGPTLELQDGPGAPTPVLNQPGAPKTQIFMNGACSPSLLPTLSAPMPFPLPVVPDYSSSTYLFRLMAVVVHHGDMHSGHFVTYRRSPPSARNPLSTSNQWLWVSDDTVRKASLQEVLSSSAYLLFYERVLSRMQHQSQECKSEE
row,Compound,IC50
1,CCOC(=O)c1ccc(S(=O)(=O)N2CCC(C(=O)OC(C)C(=O)Nc3cccc([N+](=O)[O-])c3)CC2)cc1 (centres undefined),2.51 µM
2,CC(C)Cc1nc2sc3c(NCCN4CCOCC4)ncnc3c2c2c1CCC2,> 50 µM (inactive)
3,Cc1c(C)n(-c2ccccc2)c2ncn(CC(=O)NCCCc3ccccc3)c(=O)c12,44.9 µM
4,COc1ccc(NC(=O)c2[nH]nc3c2COc2ccccc2-3)c(OC)c1,3.47 µM
5,CCC(C)Oc1cccc(C(=O)Nc2ccc(CN3CCOCC3)cc2)c1 (centres undefined),> 50 µM (inactive)
6,c1ccc(-c2ccc(NCc3ccc4c(c3)OCO4)nn2)cc1,35.1 µM
7,Cc1nnc(NCc2cccnc2)c2c1nnn2Cc1ccccc1Cl,28.3 µM
8,Cc1cnc2nc3c(cc2c1)CN(S(=O)(=O)c1cc(F)ccc1C)CC3,> 50 µM (inactive)
9,Cc1ccc(C(C)C)cc1OCCOCCN1CCNCC1,> 50 µM (inactive)
10,Cc1cc(-c2nnc(SCC(=O)Nc3ccc(Br)c(C)c3)n2N)n[nH]1,16.1 µM
11,COc1ccc(Nc2nc3c(S(=O)(=O)c4ccc(C)cc4)nnn3c3ccsc23)c(OC)c1,0.401 µM
12,CCOc1ccc(NC(=O)COc2cccc3c2CCN(CC)C3=O)cc1,> 50 µM (inactive)
13,COc1cccc2cc(C(=O)Nc3nc(-c4ccncc4)cs3)oc12,0.161 µM
14,CS(=O)(=O)c1ccc(NC(=O)C2CN(c3nc4c(F)cccc4s3)C2)cc1,31.1 µM
15,O=C(COc1cc([N+](=O)[O-])cc2cccnc12)NCCC1=CCCCC1,28.3 µM
16,CCc1ccc(NC(=O)COC(=O)c2n[nH]c3ccccc23)cc1,4.4 µM
17,O=c1c2cnc(N3CCOCC3)nc2ccn1CCc1ccccc1,16.7 µM
18,O=c1ccc(-c2noc(Cc3c(F)cccc3Cl)n2)c[nH]1,> 50 µM (inactive)
19,O=C(Nc1nc2ccccc2s1)c1ccc2c(c1)C(=O)N(Cc1cccnc1)C2=O,2.19 µM
20,Cc1oc2ccc(NS(=O)(=O)c3ccc(F)cc3)cc2c1C(=O)OCc1ccccc1,48.2 µM
21,CO/C1=C\C(C)=C/[C@@H](C)[C@@H](O)[C@@H](C)C/C(C)=C/C=C/[C@H](OC)[C@@H]([C@@H](C)[C@@H](O)[C@H](C)[C@@]2(O)C[C@@H](OC(=O)/C=C/C(N)=O)[C@H](C)[C@@H](C(C)C)O2)OC1=O,> 50 µM (inactive)
22,CCN(CCCNC(=O)c1ccc(Cn2c(=O)[nH]c3ccccc3c2=O)cc1)c1ccccc1,6.5 µM
23,O=C(CN1CCCCC1)Nc1nnc(-c2ccc([N+](=O)[O-])cc2)s1,22.5 µM
24,CCCC[C@@H](C)/C=C(C)/C=C(\C)C(=O)NC1=C[C@](O)(/C=C/C=C/C=C/C(=O)NC2=C(O)CCC2=O)[C@@H]2O[C@@H]2C1=O,4.76 µM
25,Cc1ccc(NC(=O)c2sc3ncn(CC(=O)N4CCN(c5ccccn5)CC4)c(=O)c3c2C)c(Br)c1,8.36 µM

row,Compound,IC50
1,CO[C@H]1CC[C@H](O)c2c1oc1c3c4c(c(O)c1c2=O)-c1c(cc2c(Cl)c(C)n(N)c(=O)c2c1O)C[C@@H]4OCO3,47.3 µM
2,CC(C)c1ccc(C(C(=O)NC2CCCCC2)N(C(=O)c2cnccn2)c2cccc(F)c2)cc1 (centres undefined),22.9 µM
3,Cc1ccc2cc(CNc3ccccc3)c(=O)n(CC(=O)Nc3ccccc3C)c2c1,40.7 µM
4,COc1ccc(N(CC(=O)NC2CCCCC2)C(=O)c2ccc(-c3ccccc3)[nH]2)cc1OC,2.83 µM
5,Cc1cc(C(=O)NC2(O)C(=O)c3ccccc3C2=O)n(C)n1,20.5 µM
6,COc1ccc2[nH]cc(S(=O)(=O)c3ccc(C)c(F)c3)c(=O)c2c1,46.4 µM
7,COc1ccc(-c2cc(-c3ccccc3)nc(SCC(N)=O)c2C#N)cc1OC,1.59 µM
8,Cc1cc(C)c2cc3c(nc2c1)OC(=O)N(Cc1ccco1)C3,23.2 µM
9,O=c1c2ccccc2c(-c2nc(-c3ccncc3)no2)cn1-c1ccccc1,2.54 µM
10,O=c1c2cnc3nc(-c4cccnc4)nn3c2ccn1CCc1ccccc1,> 50 µM (inactive)
11,CC(=O)Nc1ccc(Cc2nc(-c3ccc4c(c3)nc(C)c(=O)n4C3CCCC3)no2)cc1,> 50 µM (inactive)
12,O=C(/C=C/c1ccco1)c1cccc([N+](=O)[O-])c1,40.1 µM
13,Cn1c(COc2ccccc2)nnc1SCC(=O)Nc1ccc(N2CCOCC2)cc1,20 µM
14,COC(=O)c1c(C)[nH]c(C(=O)C(C)OC(=O)CCC2CCCC2)c1C (centres undefined),> 50 µM (inactive)
15,Cc1ccc(-c2nc(Cn3nnc(-c4nc(-c5ccccn5)no4)c3C)c(C)o2)cc1,> 50 µM (inactive)
16,Cc1ccccc1NC(=O)Nc1ccccc1OCc1cc(=O)n2cccc(C)c2n1,0.687 µM
17,CC(=O)Nc1cc(-c2cccc(O)c2)cn2c(-c3cnn(C)c3)cnc12,2.9 µM
18,Cc1ccc(C)c(-n2c(N)c(C(=O)NCCc3ccccc3)c3nc4ccccc4nc32)c1,> 50 µM (inactive)
19,CC(=O)N1Cc2ccccc2CC2(CCCN(CC3CCOCC3)C2)C1 (centres undefined),> 50 µM (inactive)
20,CCOC(=O)CSc1nnc(-c2cnn(-c3ccccc3)c2N)o1,18.2 µM
21,COC1=CC(=O)c2c(O)c(C)c(CC(C)=O)c(O)c2C1=O,> 50 µM (inactive)
22,COc1ccc(-n2c(SCC(=O)c3ccc(F)cc3)nnc2-c2cccnc2)cc1,21.9 µM
23,COc1ccc(Cn2c(=O)[nH]c3cc(C(=O)NCCCN4CCN(c5cccc(Cl)c5)CC4)ccc3c2=O)cc1,1.92 µM
24,Cc1cc(C)n(-c2cccc(C(=O)Nc3ccc4c(c3)CCN4S(C)(=O)=O)c2)n1,> 50 µM (inactive)
25,CCc1noc(-c2ccc(OCC(=O)Nc3ccc(C)cc3C)cc2)n1,29 µM

row,Compound,IC50
1,Cc1cc(C(=O)N2CCOCC2)c(C)n1-c1ccc(O)cc1,> 50 µM (inactive)
2,COc1ccc(NC(=O)Cn2cc(C(=O)c3ccc(C)cc3)c(=O)c3ccccc32)cc1,2.32 µM
3,N#Cc1ccccc1Cn1c(=O)n(Cc2ccco2)c(=O)c2ccccc21,> 50 µM (inactive)
4,COc1ccc(OC)c(CCNC(=O)CCC2=NS(=O)(=O)c3ccc(C(F)(F)F)cc3N2)c1,23.5 µM
5,CN(Cc1ccccc1)S(=O)(=O)c1ccc(S(=O)(=O)N2CCN(C(=O)c3cccnc3)CC2)cc1,15.8 µM
6,O=C(CSc1nc2ccccc2n1S(=O)(=O)c1ccc(Br)cc1)Nc1ccc([N+](=O)[O-])cc1Cl,41 µM
7,O=C(NCCCc1nc2ccccc2n1Cc1c(Cl)cccc1Cl)c1ccco1,25 µM
8,COc1ccc(NC(=O)C2CCN(c3cncnc3N(C)C)CC2)cc1OC,> 50 µM (inactive)
9,O=C(CCc1nnc2n(Cc3ccc(F)cc3)c(=O)c3ccccc3n12)N1CCN(c2ccccn2)CC1,> 50 µM (inactive)
10,Nc1ncnc(SCc2ccc(Cl)cc2)n1,17.1 µM
11,Cc1nc2sc(C(=O)Nc3ccccc3Br)c(N)c2c(C)c1C,1.2 µM
12,Cc1ccc2[nH]c3c(=O)n(CC4CCCO4)cnc3c2c1 (centres undefined),17.9 µM
13,O=C(Nc1cc(F)ccc1F)c1ccn(COc2ccc(F)c(Cl)c2)n1,22 µM
14,Cc1c(-c2nc(-c3ccccc3Cl)no2)nnn1-c1cccc(F)c1,4.07 µM
15,O=C1CC(O)C(O)c2cccc(O)c21 (centres undefined),> 50 µM (inactive)
16,COc1cc(Cn2cnc3c([nH]c4ccc(Br)cc43)c2=O)cc(OC)c1,2.67 µM
17,CCC(C(=O)NCc1ccncc1)N(c1cccc(Cl)c1)S(C)(=O)=O (centres undefined),> 50 µM (inactive)
18,O=c1[nH]cccc1NS(=O)(=O)c1ccc(F)cc1,> 50 µM (inactive)
19,CNC(=O)c1cc2nc(N(C)C)n(-c3ccccc3)c2s1,> 50 µM (inactive)
20,O=C1CC(C(=O)Nc2ccccc2Cl)n2nc(-c3ccccc3)cc2N1 (centres undefined),20.1 µM
21,Cc1nc(NCc2ccccn2)c2cc(-c3ccccc3)sc2n1,25.6 µM
22,COc1cccc2cc(C(=O)Nc3ccc4c(c3)OCCO4)oc12,> 50 µM (inactive)
23,Cc1cc(Cl)ccc1Nc1nc(Nc2cccc(F)c2)nc2nccnc12,> 50 µM (inactive)
24,CCOC(=O)Nc1ccc(N2CCn3c(nc4ccccc43)C2)cc1OC,> 50 µM (inactive)
25,Cc1cc2nc(Oc3cccc(Cl)c3)c3ccccc3n2n1,2.04 µM

row,Compound,IC50
1,O=c1c(Nc2cccc(F)c2)nc2ccncc2n1Cc1ccccc1,26.4 µM
2,CC1=C(c2ccc(F)cc2)S(=O)(=O)N=C1Nc1ccc(Cl)cc1,32.3 µM
3,COc1ccc(C2SCC(=O)Nc3c2c(=O)[nH]n3C2CCCCC2)cc1 (centres undefined),30.1 µM
4,CSc1ccccc1C(=O)Nc1sc2c(c1C(N)=O)CCC(C)C2 (centres undefined),2.15 µM
5,Cc1ccc(C(=O)Nc2ccc(S(=O)(=O)N3CCCC3)cc2)cc1Br,> 50 µM (inactive)
6,Cc1ccc(CNC(=O)c2cnc3ccccc3n2)cc1,> 50 µM (inactive)
7,CCN1CCCC1CN(Cc1cc2cc(OC)ccc2[nH]c1=O)C(=O)NCc1ccccc1 (centres undefined),> 50 µM (inactive)
8,Cc1ccc(Cn2nnc(C(=O)NCc3ccco3)c2-n2cccc2)cc1,> 50 µM (inactive)
9,CCOC(=O)c1c(C)nc2n(Cc3ccccc3)c3ccccc3n12,17.9 µM
10,COC(=O)c1ccc(Cn2cnc3ccc(F)cc3c2=O)o1,> 50 µM (inactive)
11,O=C(/C=C/c1cnc2ccccc2c1)NCc1ccccc1,35.1 µM
12,COc1cc(C(=O)NC(Cc2ccccc2)c2nc3ccccc3[nH]2)cc(OC)c1OC (centres undefined),2.06 µM
13,O=[N+]([O-])c1cccc(CSc2nnc(/C=C/c3ccccc3)o2)c1,> 50 µM (inactive)
14,CCn1c(CN2CCCC(c3nc(-c4cccnc4)n[nH]3)C2)nc2ccccc21 (centres undefined),> 50 µM (inactive)
15,CC[C@@]1(O)C[C@H](OC2CC(N(C)C)C(OC3CC(O)C(OC4CCC(=O)C(C)O4)C(C)O3)C(C)O2)c2c(cc3c(c2O)C(=O)c2c(O)ccc(O)c2C3=O)[C@H]1C(=O)OC (some centres undefined),> 50 µM (inactive)
16,COc1ccc(-c2cnnn2-c2ccc(NC(=O)c3c(F)cccc3F)cc2)cc1OC,> 50 µM (inactive)
17,COC(=O)c1sccc1NC(=O)COc1ccsc1C(=O)OC,27.9 µM
18,Cc1ccc(-n2cc3c(N4CCCC(C(=O)NCC5CCCCC5)C4)ncnc3n2)cc1 (centres undefined),40.7 µM
19,COc1cc2c(c3oc4cccc(O)c4c(=O)c13)C1C=COC1O2 (centres undefined),> 50 µM (inactive)
20,COc1cc(Cl)c(C)cc1NC(=O)Cn1c(=O)n(CC(=O)NCc2ccco2)c(=O)c2ccccc21,1.34 µM
21,COc1cc(C#N)c(NC(=NCc2ccc(F)cc2)SC)cc1OC,20.5 µM
22,Cc1cc(N2CCOCC2)nc2ccc(NC(=O)CCC(=O)Nc3ccc(F)cc3)cc12,10.3 µM
23,Nc1ccc(NC(=O)c2cc3c(s2)CCC3)cc1[N+](=O)[O-],16.5 µM
24,C=C1CCC2[C@](C)(CCC[C@]2(C)C(=O)OC)[C@H]1CCc1ccoc1C[N+](C)(C)Cc1ccccc1 (some centres undefined),16.6 µM
